PubChem BioAssay AID248 (DTP/NCI, 2004)
“And” between values parts separate entries of the source, which are not always exact repeats. Equal entries are not always repeated. Toxic doses and inconclusive results are not listed. Cut-off read from the data, not from the text of the source: active = T/C of 150% or more; inactive = T/C below 125%.

Test system: L1210 leukemia ip in BDF1 mice, survival T/C
Assay: NCI In Vivo Anticancer Drug Screen. Data for tumor model L1210 Leukemia (intraperitoneal) in B6D2F1 (BDF1) mice
Conditions: endpoint: mean survival time, higher = longer survival
Summary of the method: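 Tumor cells were implanted, animals were treated, and survival was followed. The result divides the treated measurement by the vehicle-control measurement.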

[1] = dose: 100.0 mg/kg/injection, schedule: Q01DX001 (ip), vehicle: Klucel (hydroxypropylcellulose) (HPC)
[2] = dose: 200.0 mg/kg/injection, schedule: Q01DX001 (ip), vehicle: Klucel (hydroxypropylcellulose) (HPC)
[3] = dose: 400.0 mg/kg/injection, schedule: Q01DX001 (ip), vehicle: Klucel (hydroxypropylcellulose) (HPC)
[4] = dose: 100.0 mg/kg/injection, schedule: Q01DX009 (ip), vehicle: saline

Measured: T/C

OC1COC(OCc2ccccc2)C(O)C1O (configuration not stated)
inactive: [1] 101 % of control | dose: 100.0 mg/kg/injection, schedule: Q04DX003 (ip), vehicle: saline with Tween-80 101 % of control | [2] 96 % of control | dose: 200.0 mg/kg/injection, schedule: Q04DX003 (ip), vehicle: saline with Tween-80 100 % of control | [3] 101 % of control

CC(C)(C)N(O)C(=O)NC1CCCCC1
inactive: [1] 92 % of control | [2] 91 % of control | [3] 103 % of control

CCC[CH2][Sn]([C]#[C][Sn]([CH2]CCC)([CH2]CCC)[CH2]CCC)([CH2]CCC)[CH2]CCC
inactive: dose: 0.39 mg/kg/injection, schedule: Q01DX009 (ip), vehicle: saline 94 % of control | dose: 0.78 mg/kg/injection, schedule: Q01DX009 (ip), vehicle: saline 94 % of control | dose: 1.56 mg/kg/injection, schedule: Q01DX009 (ip), vehicle: saline 97 % of control and 102 % of control | dose: 6.25 mg/kg/injection, schedule: Q01DX009 (ip), vehicle: Klucel (hydroxypropylcellulose) (HPC) 88 % of control | dose: 25.0 mg/kg/injection, schedule: Q04DX002 (ip), vehicle: saline 94 % of control

CCOC(=O)C(=O)C(C#N)C(=O)OCC (configuration not stated)
inactive: dose: 12.5 mg/kg/injection, schedule: Q04DX003 (ip), vehicle: Klucel (hydroxypropylcellulose) (HPC) 100 % of control | dose: 25.0 mg/kg/injection, schedule: Q01DX009 (ip), vehicle: saline 98 % of control | dose: 25.0 mg/kg/injection, schedule: Q04DX003 (ip), vehicle: Klucel (hydroxypropylcellulose) (HPC) 100 % of control | dose: 50.0 mg/kg/injection, schedule: Q01DX009 (ip), vehicle: saline 98 % of control | dose: 50.0 mg/kg/injection, schedule: Q04DX003 (ip), vehicle: Klucel (hydroxypropylcellulose) (HPC) 91 % of control | [4] 95 % of control | dose: 100.0 mg/kg/injection, schedule: Q04DX003 (ip), vehicle: Klucel (hydroxypropylcellulose) (HPC) 97 % of control

O=C1NC(=S)S/C1=C\c1ccncc1
inactive: dose: 50.0 mg/kg/injection, schedule: Q01DX001 (ip), vehicle: carboxymethylcellulose (CMC) 94 % of control | dose: 100.0 mg/kg/injection, schedule: Q01DX001 (ip), vehicle: carboxymethylcellulose (CMC) 89 % of control | dose: 200.0 mg/kg/injection, schedule: Q01DX001 (ip), vehicle: carboxymethylcellulose (CMC) 92 % of control | dose: 400.0 mg/kg/injection, schedule: Q01DX001 (ip), vehicle: carboxymethylcellulose (CMC) 99 % of control

c1ccc(-c2c[n+]3cc4ccccc4cc3cn2)cc1
inactive: [4] 91 % of control | dose: 100.0 mg/kg/injection, schedule: Q04DX003 (ip), vehicle: saline 100 % of control | dose: 200.0 mg/kg/injection, schedule: Q01DX009 (ip), vehicle: saline 96 % of control | dose: 200.0 mg/kg/injection, schedule: Q04DX003 (ip), vehicle: saline 96 % of control | dose: 400.0 mg/kg/injection, schedule: Q01DX009 (ip), vehicle: saline 97 % of control | dose: 400.0 mg/kg/injection, schedule: Q04DX003 (ip), vehicle: saline 98 % of control

CN(C)Cc1cccc(C(F)(F)F)c1C(O)c1ccccc1 (configuration not stated)
inactive: dose: 50.0 mg/kg/injection, schedule: Q01DX001 (ip), vehicle: saline 100 % of control | dose: 100.0 mg/kg/injection, schedule: Q01DX001 (ip), vehicle: saline 94 % of control | dose: 200.0 mg/kg/injection, schedule: Q01DX001 (ip), vehicle: saline 103 % of control | dose: 400.0 mg/kg/injection, schedule: Q01DX001 (ip), vehicle: saline 100 % of control

NC(CCCNc1nc(O)c(-c2ccccc2)c(=O)[nH]1)C(=O)O (configuration not stated)
inactive: dose: 75.0 mg/kg/injection, schedule: Q01DX001 (ip), vehicle: saline 104 % of control | dose: 150.0 mg/kg/injection, schedule: Q01DX001 (ip), vehicle: saline 102 % of control | dose: 300.0 mg/kg/injection, schedule: Q01DX001 (ip), vehicle: saline 102 % of control
